Source: paper PMC9176062, “Phase Ib study of combinations of avadomide (CC‐122), CC‐223, CC‐292, and rituximab in patients with relapsed/refractory diffuse large B‐cell lymphoma” (EJHaem, 2022)

Tests used:
p4EBP1 = assay: mTOR signaling pathway biomarker p4EBP1 in blood; format: in vivo, human
Protocol: (§1) AEs were assessed according to the National Cancer Institute Common Terminology Criteria for AEs, version 4.03, up to 28 days after the last treatment. Blood samples for PK analysis were collected on days 15 to 28, predose, and at 1.5 and 3 h post‐dose on days 1 and 15 of cycle 1 for all dose cohorts. Additional blood samples were collected on day 15 from patients in dose level 2 of arm C to examine CC‐223 and CC‐292 steady‐state PK. Pharmacodynamic biomarkers of each novel agent were explored at baseline and cycle 1, day 1 (pre‐dose, and at 1.5 and 3 h) and cycle 1, day 15 (pre‐dose, and at 1.5 and 3 h), including cereblon modulation substrates in B and T cells in patients treated with CC‐122 and mTOR signaling pathway biomarkers (e.g., p4EBP1 and pAKT) in patients treated with CC‐223. Tumor assessments were performed at screening and at the end of even‐numbered cycles through cycle 6, then every three cycles through cycle 12, and every 6 months thereafter. Responses were assessed by the investigator per International Working Group 2007 criteria.
(§2) Safety analyses were performed on all patients who received ≥1 dose of study treatment (safety population). The PK population comprised all patients who took ≥1 dose of study treatment and had ≥1 measured drug concentration. […] The biomarker‐evaluable population comprised all patients who took ≥1 dose of study treatment and had ≥1 pharmacodynamic assessment. […] PK parameters were calculated using actual times relative to the most recent administration. The median duration of response (DOR) and median PFS were calculated per the Kaplan‐Meier method.
(§3) Per cent change from baseline in Aiolos in CD3+ T cells (A) and CD19+ B cells (B) and in p4EBP1 (C) and pAKT (D) at 3 h post‐dose on day 1 of cycle 1 (biomarker‐evaluable population). The change in Aiolos expression in CD3+ T cells and CD19+ B cells was calculated within each avadomide‐ and CC‐223‐containing arm. *p ≤ 0.05 versus baseline; **p ≤ 0.01 versus baseline; ***p ≤ 0.001 versus baseline; DL, dose level; MEFL, molecules of equivalent fluorescence label; NS, not significant

pAKT = assay: mTOR signaling pathway biomarker pAKT in blood; format: in vivo, human
Protocol: as §1, §2, §3

[1] = Steady‐state plasma pharmacokinetics; format: in vivo; conditions: human, oral, CC‐223 + CC‐292 (arm C dose level 2, day 15)
Protocol: as §1
Safety analyses were performed on all patients who received ≥1 dose of study treatment (safety population). The PK population comprised all patients who took ≥1 dose of study treatment and had ≥1 measured drug concentration. […] The biomarker‐evaluable population comprised all patients who took ≥1 dose of study treatment and had ≥1 pharmacodynamic assessment. Safety and efficacy analyses were based on the safety population except where noted (PK and biomarkers). PK parameters were calculated using actual times relative to the most recent administration. The median duration of response (DOR) and median PFS were calculated per the Kaplan‐Meier method.
FIGURE S3 Summary of pharmacokinetic parameters and mean plasma concentration-time profiles of (A) CC-223 and (B) CC-292. Summary of pharmacokinetic parameters and mean plasma concentration-time profiles of (A) CC-223 and (B) CC-292. […] Data are geometric means (CV%) except for Tmax, for which medians (min, max) are presented.

patients with R/R DLBCL = assay: Treatment duration, modification, and exposure; format: in vivo
Protocol: CC‐122 hydrochloride, referred to here as CC‐122, as an active pharmaceutical ingredient in capsule (AIC) formulation, was administered orally once daily (QD). An alternate intermittent schedule of CC‐122 QD for five of every seven consecutive days (5/7), which improved tolerability and reduced the frequency and severity of neutropenia in a study of CC‐122 monotherapy in DLBCL, was also explored. CC‐292 was administered orally twice daily (BID) and CC‐223 was administered orally QD. Rituximab was administered on day 8 of cycle 1, day 1 of cycles 2–6, and day 1 of every third cycle thereafter. Patients in arm A received CC‐122 and CC‐223 with or without rituximab (starting at CC‐122 2 mg QD and CC‐223 20 mg QD), patients in arm B received CC‐122 plus CC‐292 with or without rituximab (starting at CC‐122 2 mg QD and CC‐292 500 mg BID), patients in arm C were treated with CC‐223 and CC‐292 (starting at CC‐223 20 mg QD and CC‐292 500 mg BID), and those in arm D received CC‐122 plus rituximab (starting at CC‐122 2 mg QD). In arm D, a CC‐122 3 mg formulated capsule was introduced with the same strength as CC‐122 3 mg AIC. Each dose level was cleared before the next was started. If unacceptable toxicity occurred at the initial dose level, dose reductions for CC‐122 (1.5 mg QD and 1 mg QD) and CC‐223 (15 mg QD) were allowed; no starting dose reductions for CC‐292 were planned. For arm A, the Safety Review Committee (SRC) determined which of the two drugs in the doublet to reduce. For arms B and D, the CC‐122 dose was reduced and for arm C, the CC‐223 dose was reduced. Assignment of patients to study arms was at the discretion of the investigator and based on slot availability per the study design.
Patients who experienced dose‐limiting toxicity (DLT) after receiving ≥1 dose of study treatment or those who received ≥80% of planned doses of CC‐122, CC‐223, CC‐292, and rituximab during cycle 1 without experiencing a DLT were considered DLT‐evaluable. If zero out of ≥3 or ≤1 out of six evaluable patients in a cohort experienced a DLT during cycle 1 in parallel dose cohorts, then dose escalation could occur. DLTs are defined in the Supplementary Materials; individual investigators performed response assessments and determined DLTs. The NTD was defined as the dose level at which ≥2 of six evaluable patients in a cohort experienced a DLT during cycle 1. […] During cycle 1, any adverse event (AE) that led to dose reduction was considered a DLT. Patients could resume CC‐122 at a reduced dose only if they recovered to grade ≤1 within 14 days of dose interruption; two dose reductions were allowed before the patient was withdrawn from the study. Dose reductions were permitted for CC‐122, CC‐223, and CC‐292; no dose reductions were allowed for rituximab, but treatment could be discontinued at the discretion of the investigator. […] For arms A, B, and D, CC‐122 dosing was modified to the intermittent 5/7‐day schedule based on SRC review and escalated until the MTD/RP2D was established. Treatment was given until disease progression, unacceptable toxicity, or patient/physician decision to withdraw consent.
^aTreatment duration defined as date of last derived dose – date of first dose + 1.
^bDefined as the ratio of actual dose received to planned dose over the treatment period.

DOHH2 cells = assay: DOHH2 xenograft model; format: in vivo; conditions: DLBCL xenograft model (DOHH2, SCID mice); avadomide oral once daily, rituximab 1 mg/kg once weekly
Protocol: Female severe combined immunodeficiency (SCID) mice (CB17/Icr-Prkdcscid, Charles River) were 8 weeks old, with body weights ranging from 15.0 g to 23.2 g on day 1 of these studies. Each SCID mouse was injected subcutaneously in the right flank with 5 × 10^6 DOHH2 cells (0.2-mL cell suspension). Tumors were calipered in 2 dimensions to monitor growth as their mean volume approached 100 to 150 mm^3. Fourteen days after tumor cell implantation, mice were sorted into treatment groups of 10 mice per group. Tumors were calipered twice weekly during the study. Avadomide was suspended in 0.5% carboxymethyl cellulose (0.25% Tween-80 in deionized water). Vehicle control and avadomide were each administered via oral gavage once daily; rituximab (1 mg/kg) was administered once weekly for the duration of the study.
FIGURE S1 Change in the percentage of apoptotic cells over time (A) and in vivo tumor growth response after combination treatment with avadomide and rituximab (B). Natural killer cell activity against DOHH or RL FL cell lines determined by flow cytometry is shown (A). Female CB17 severe combined immunodeficiency mice implanted subcutaneously with DOHH2 cells were administered vehicle and avadomide once daily and rituximab given 1 mg/kg once weekly (B). SEM, standard error of the mean; TGI, tumor growth inhibition. mm^3

R/R DLBCL = conditions: cited from earlier work
[2] = arm A (with CC‐122), 20 mg of CC‐223, 3 h post‐dose vs baseline
[3] = arm C (with CC‐292), 20 mg of CC‐223, 3 h post‐dose
[4] = arm C (with CC‐292), CC‐223 15 mg
[5] = Overall (all arms with the drug)

CO[C@H]1CC[C@H](N2C(=O)CNc3ncc(-c4ccc(C(C)(C)O)nc4)nc32)CC1 [CC‐223]
median reduction in p4EBP1 levels (p4EBP1; [2]): approximately 30%
increase of p4EBP1 levels from baseline (p4EBP1; [3]): approximately 8%
reduction of p4EBP1 (p4EBP1; [4]): approximately 30%
median reduction in pAKT levels (pAKT; [2]): ~70%
median reduction of pAKT levels (pAKT; [3]): approximately 50%
reduction of pAKT levels (pAKT; [4]): approximately 50%
clearance ([1]; read-out: apparent plasma clearance (converted)): ~405 mL/min
Vd ([1]; read-out: mean apparent volume of distribution): 127 L
Tmax ([1]; read-out: median Tmax): 1.5 h
half-life ([1]; read-out: terminal half‐life (converted)): ~3.6 h
≥1 dose interruption (patients with R/R DLBCL; Arm A (Avadomide + CC-223 ± R)): 25 (80.6) n (%)
≥1 dose interruption: Adverse event (patients with R/R DLBCL; Arm A (Avadomide + CC-223 ± R)): 23 (74.2) n (%)
≥1 dose interruption: Other (patients with R/R DLBCL; Arm A (Avadomide + CC-223 ± R)): 10 (32.3) n (%)
≥1 dose interruption: Per protocol (patients with R/R DLBCL; Arm A (Avadomide + CC-223 ± R)): 1 (3.2) n (%)
≥1 dose reduction (patients with R/R DLBCL; Arm A (Avadomide + CC-223 ± R)): 10 (32.3) n (%)
≥1 dose reduction: Adverse event (patients with R/R DLBCL; Arm A (Avadomide + CC-223 ± R)): 7 (22.6) n (%)
≥1 dose reduction: Other (patients with R/R DLBCL; Arm A (Avadomide + CC-223 ± R)): 2 (6.5) n (%)
≥1 dose reduction: Per protocol (patients with R/R DLBCL; Arm A (Avadomide + CC-223 ± R)): 0 n (%)
≥1 dose interruption (patients with R/R DLBCL; Arm C (CC-292 + CC-223)): 9 (64.3) n (%)
≥1 dose interruption: Adverse event (patients with R/R DLBCL; Arm C (CC-292 + CC-223)): 8 (57.1) n (%)
≥1 dose interruption: Other (patients with R/R DLBCL; Arm C (CC-292 + CC-223)): 3 (21.4) n (%)
≥1 dose interruption: Per protocol (patients with R/R DLBCL; Arm C (CC-292 + CC-223)): 1 (7.1) n (%)
≥1 dose reduction (patients with R/R DLBCL; Arm C (CC-292 + CC-223)): 1 (7.1) n (%)
≥1 dose reduction: Adverse event (patients with R/R DLBCL; Arm C (CC-292 + CC-223)): 1 (7.1) n (%)
≥1 dose reduction: Other (patients with R/R DLBCL; Arm C (CC-292 + CC-223)): 0 n (%)
≥1 dose reduction: Per protocol (patients with R/R DLBCL; Arm C (CC-292 + CC-223)): 0 n (%)
≥1 dose interruption (patients with R/R DLBCL; [5]): 34 (75.6) n (%)
≥1 dose interruption: Adverse event (patients with R/R DLBCL; [5]): 31 (68.9) n (%)
≥1 dose interruption: Other (patients with R/R DLBCL; [5]): 13 (28.9) n (%)
≥1 dose interruption: Per protocol (patients with R/R DLBCL; [5]): 2 (4.4) n (%)
≥1 dose reduction (patients with R/R DLBCL; [5]): 11 (24.4) n (%)
≥1 dose reduction: Adverse event (patients with R/R DLBCL; [5]): 8 (17.8) n (%)
≥1 dose reduction: Other (patients with R/R DLBCL; [5]): 2 (4.4) n (%)
≥1 dose reduction: Per protocol (patients with R/R DLBCL; [5]): 0 n (%)
patients with dose reductions of the drug (patients with R/R DLBCL; all patients who received the drug): 24.4%

rituximab [reference compound]
tumor growth inhibition (TGI) (DOHH2 cells): 19%
≥1 dose interruption (patients with R/R DLBCL; Arm A (Avadomide + CC-223 ± R)): 9 (47.4) n (%)
≥1 dose interruption: Adverse event (patients with R/R DLBCL; Arm A (Avadomide + CC-223 ± R)): 6 (31.6) n (%)
≥1 dose interruption: Other (patients with R/R DLBCL; Arm A (Avadomide + CC-223 ± R)): 5 (26.3) n (%)
≥1 dose interruption (patients with R/R DLBCL; Arm B (Avadomide + CC-292 ± R)): 2 (16.7) n (%)
≥1 dose interruption: Adverse event (patients with R/R DLBCL; Arm B (Avadomide + CC-292 ± R)): 2 (16.7) n (%)
≥1 dose interruption: Other (patients with R/R DLBCL; Arm B (Avadomide + CC-292 ± R)): 1 (8.3) n (%)
≥1 dose interruption (patients with R/R DLBCL; Arm D (Avadomide + R)): 2 (6.7) n (%)
≥1 dose interruption: Adverse event (patients with R/R DLBCL; Arm D (Avadomide + R)): 1 (3.3) n (%)
≥1 dose interruption: Other (patients with R/R DLBCL; Arm D (Avadomide + R)): 2 (6.7) n (%)
≥1 dose interruption (patients with R/R DLBCL; [5]): 13 (21.3) n (%)
≥1 dose interruption: Adverse event (patients with R/R DLBCL; [5]): 9 (14.8) n (%)
≥1 dose interruption: Other (patients with R/R DLBCL; [5]): 8 (13.1) n (%)

O=C(/C=C\n1cnc(-c2cc(C(F)(F)F)cc(C(F)(F)F)c2)n1)NNc1cnccn1 [selinexor, reference compound]
CR rates (R/R DLBCL; monotherapy, third‐line setting): 12%

tisagenlecleucel
36‐month PFS (R/R DLBCL; patients with a complete response at 3 months): 70%
